From patent publication US20170368037A1, “PHARMACEUTICAL COMPOSITION FOR PROMOTION OF FIBRINOLYSIS” (Daiichi Sankyo Company, Limited, priority 2014, published 2017)

Legend:
[1] = test system: fibrinolysis induced by tPA in human plasma; assay: Fibrinolysis assay (clot lysis time induced by tPA in human plasma), Example 1; assay type: biochemical; conditions: tPA 180 ng/mL, edoxaban 18.8 ng/mL to 300 ng/mL, vs control
Description: Edoxaban was dissolved in dimethyl sulfoxide (hereinafter, also referred to as “DMSO”) (Wako Pure Chemical Industries, Ltd.) to prepare a 10 mM solution, which was then stored at −30° C. Before use, the frozen product was thawed and diluted with DMSO and saline (Otsuka Pharmaceutical Factory, Inc.) (DMSO concentration in test substance solution: 0.96%, final DMSO concentration in reaction system: 0.08%).
Hepes buffer: Hepes (Sigma-Aldrich, Co. LLC.) and NaCl (Nacalai Tesque Inc.) were dissolved at 20 mM and 140 mM, respectively, in distilled water, and the solution was adjusted to pH 7.4 using a 1 mol/L sodium hydroxide solution (Nacalai Tesque Inc.). […]
(§1) 70 μL of the human plasma sample (containing tPA), 10 μL each of varying concentrations of the edoxaban solution, and 20 μL of the PPP reagent were added to each well of a 96-well plate (Sumilon Proteosave SS 96F plate, MS-8296F). […] Absorbance at 405 nm was measured every 30 seconds using SpectraMAX 384 Plus (Molecular Devices, LLC.) prewarmed to 37° C. The time for the absorbance to return to ½ of the peak from the time to reach ½ of the peak was calculated using SoftMax Pro 5.4.1 (Molecular Devices, LLC.) and used as clot lysis time. […]
Two experiments were conducted on each of 3 lots of human plasma (n=6). […] The calculated P value was rounded off and indicated by three decimal places. […]

[2] = test system: fibrinolysis induced by tPA in human plasma; assay: Fibrinolysis assay (clot lysis time in human plasma containing tPA and TM), Example 2; assay type: biochemical; conditions: tPA 180 ng/mL, TM 0.1 nM, vs control
Description: Edoxaban was dissolved in DMSO to prepare a 10 mM solution, which was then stored at −30° C. Before use, the frozen product was thawed and diluted with DMSO and saline (DMSO concentration in test substance solution: 1.92%).
PCI (Sigma-Aldrich, Co. LLC.) was dissolved in Hepes buffer to prepare a 4.8 mg/mL solution, which was then stored at −30° C. Before use, the frozen product was thawed and diluted with Hepes buffer.
Hepes buffer, tPA solution, and PPP reagent were prepared in the same way as in Example 1(2). […]
as §1, with “tPA and TM), 5” for “tPA), 10”, “solution, 5 μL of PCI,” for “solution,”, “Plus” for “Plus (Molecular Devices, LLC.)”, “decrease” for “return”, “5.4.1” for “5.4.1 (Molecular Devices, LLC.)”
Two experiments were conducted on each of 3 lots of human plasma (n=6). The basic statistics (mean, standard deviation, and standard error) of the clot lysis time were calculated, and the results were indicated by mean±standard error (SEM). […] Concentration dependence was evaluated by Spearman's rank correlation coefficient hypothesis test. […]

Row | Compound | clot lysis time [1] | clot lysis time ([2]; edoxaban alone 150 and 300 ng/mL) | clot lysis time ([2]; PCI alone 0.3 to 3 μg/mL)
1 | CN1CCc2nc(C(=O)N[C@@H]3C[C@@H](C(=O)N(C)C)CC[C@@H]3NC(=O)C(=O)Nc3ccc(Cl)cn3)sc2C1 [Edoxaban, N-(5-chloropyridin-2-yl)-N′-[(1S,2R,4S)-4-(dimethylcarbamoyl)-2-(5-methyl-4,5,6,7-tetrahydro[1,3]thiazolo[5,4-c]pyridine-2-carboxamido)cyclohexyl]oxamide] | significantly shortened the clot lysis time in a concentration-dependent manner | significantly shortened the clot lysis time in a concentration-dependent manner | 
2 | PCI: carboxypeptidase inhibitor from potato tuber, a TAFIa inhibitor (Sigma-Aldrich) (QQHADPICNKPCKTHDDCSGAWFCQACWNSARTCGPYVG; UniProt P01075 1-39, looked up) |  |  | significantly shortened the clot lysis time in a concentration-dependent manner
